What all share (type): physicochemical
Data set [1] in a line: Stability samples stored at elevated temperature/relative humidity, examined for crystal form. Particulars: 80° C./50% RH, 60° C./75% RH, 60° C./50% RH and 40° C./75% RH, sealed conditions, 2 months.
A short description of data set [2]: Thermodynamic stability among crystalline forms.
Data set [3] can be described thus: Total volatile content by thermogravimetric analysis (TGA). Particulars: TA Instruments Hi-Res TGA 2950 thermogravimetric analyzer (FIG. 7). Here is the method:
Accordingly, in a second aspect of the present invention there is provided the compound of formula (I) form VI, having a total volatile content of not more than 0.3% by weight (w/w) as determined by a TA Instruments Hi-Res TGA 2950 thermogravimetric analyzer (FIG. 7).
Differential scanning calorimetry (DSC) was performed on a TA Instruments DSC 2920 Differential Scanning Calorimetor equipped with a DSC auto sampler. Samples of 1 to 3 mg were crimped in standard aluminum pans with holes and heated from 25° C. to 250° C. at a rate of 10° C./minute under nitrogen purge. The percentage of total weight loss of the drug substance was determined on a TA Instruments Hi-Res TGA 2950 thermogravimetric analyzer (TGA) with a nitrogen purge.

The nature of data set [4]: Gravimetric water vapor sorption (moisture sorption isotherm). Here is the method: Moisture adsorption/desorption studies were conducted on a VTI vacuum microbalance at 25° C. after drying the sample at 60° C. under vacuum. Moisture adsorption was monitored under vacuum from 0 to 95% relative humidity and desorption was monitored from 95% down to 5% relative humidity. The criteria for equilibrium at a given relative humidity was less than 3 μg of weight change in 18 minutes.

Data on 2 compounds can be found in patent publication US6482939B1, “Form vi 5,6-dichloro-2-(isopropylamino)-1-(β-l-ribofuranosyl)-1h-bezimimidazole” (SmithKline Beecham Corporation, priority 1998, dated 2002).

Consider `CC(C)Nc1nc2cc(Cl)c(Cl)cc2n1[C@H]1O[C@@H](CO)[C@H](O)[C@@H]1O` [ethanolate, 5,6-dichloro-2-(isopropylamino)-1-(β-L-ribofuranosyl)-1H-benzimidazole], for which the “solid form stability on storage (conversion of crystal form)” value in data set [1] was “partially or completely converted to Form VI”.
`CC(C)Nc1nc2cc(Cl)c(Cl)cc2n1[C@H]1O[C@@H](CO)[C@H](O)[C@@H]1O` [Form VI, 5,6-dichloro-2-(isopropylamino)-1-(β-L-ribofuranosyl)-1H-benzimidazole]: the “thermodynamic stability relative to other forms” value in data set [2] is recorded as “most thermodynamically stable form”. Further, the total volatile content result in data set [3] is “not more than 0.3 % by weight (w/w)”. Moreover, the hygroscopicity entry in data set [4] was “essentially non-hygroscopic”. Moreover, the water absorbed in data set [4] (equilibrated up to 95% relative humidity at ambient temperature (FIG. 8)) turned out to be 0.3%.
